Measurements: US20230045421A1 (priority 2018, published 2023)
pEC50: −log10 of the molar value. Read-outs that look alike come from different tables or passages of the source.

System: HBV rcDNA
Experiment: HepDE19 assay with bDNA quantitation of HBV rcDNA
Assay type: cell-based, hepatitis B virus
Outline: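 Compounds, top concentration 25 μM in 8-point duplicate series, were applied to Tet-free HepDE19 cultures for 7 days. Branched-DNA quantitation of HBV rcDNA against untreated wells gave EC50 and EC90 by 4-parameter fit. Viability (CC50) came from ATP luminescence on parallel plates incubated 4 days.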

[1] = HepDE19 assay, inhibition of formation of relaxed circular DNA (rcDNA), bDNA quantitation; read-out: DE-19bDNA EC50
[2] = Hepatitis B virus, HepDE19, HepDE19 assay, inhibition of formation of rcDNA; read-out: DE-19bDNA EC50
[3] = HepDE19 assay, inhibition of formation of rcDNA; read-out: DE-19bDNA EC50
[4] = read-out: DE-19bDNA EC50; HepDE19 assay, inhibition of formation of relaxed circular DNA (rcDNA), bDNA quantitation

Row | Compound | pEC50 [1] | pEC50 [3] | further results
1 | CC(c1cnc(-n2ccnn2)c2ccccc12)N(C)C(=O)Nc1ccc(F)c(Cl)c1 (single isomer, unassigned) [Compound 425, 1-(1-(1-(1H-1,2,3-Triazol-1-yl)isoquinolin-4-yl)ethyl)-3-(3-chloro-4-fluorophenyl)-1-methylurea] | 7.05 | – | –
2 | [2H]C([2H])([2H])N(C(=O)Nc1ccc(F)c(Cl)c1)C(C)c1c[nH]c(=O)c2cc(F)c(F)cc12 (single isomer, unassigned) [Compound 472, 3-(3-Chloro-4-fluorophenyl)-1-(1-(6,7-difluoro-1-oxo-1,2-dihydroisoquinolin-4-yl)ethyl)-1-(methyl-d3)urea] | – | – | EC50 (Hepatitis B virus, HepDE19, read-out: DE-19bDNA EC50 (μM), HepDE19 assay, inhibition of formation of relaxed circular DNA (rcDNA), bDNA quantitation): 0.007 µM
3 | CC(c1c[nH]c(=O)c2c(F)c(F)ccc12)N(C)C(=O)Nc1ccc(F)c(F)c1 (single isomer, unassigned) [Compound 434, 1-(1-(7,8-Difluoro-1-oxo-1,2-dihydroisoquinolin-4-yl)ethyl)-3-(3,4-difluorophenyl)-1-methylurea] | 5.49 | – | –
4 | COCCCN(Cc1cnc(OC)c2ccccc12)C(=O)Nc1ccc(F)c(Cl)c1 [Compound 47, 3-(3-Chloro-4-fluorophenyl)-1-((1-methoxyisoquinolin-4-yl)methyl)-1-(3-methoxypropyl)urea] | – | – | pEC50 [2]: 5.70
5 | CC(c1cn(C)c(=O)c2ccccc12)N(C)C(=O)Nc1ccc(F)c(Cl)c1 (single isomer, unassigned) [Compound 181, 3-(3-Chloro-4-fluorophenyl)-1-methyl-1-(1-(2-methyl-1-oxo-1,2-dihydroisoquinolin-4-yl)ethyl)urea] | – | 5.74 | –
6 | CC(c1c[nH]c(=O)c2ccccc12)N(CCS(N)(=O)=O)C(=O)Nc1ccc(F)c(Cl)c1 (single isomer, unassigned) [Compound 120, 2-(3-(3-Chloro-4-fluorophenyl)-1-(1-(1-oxo-1,2-dihydroisoquinolin-4-yl)ethyl)ureido) ethanesulfonamide] | – | 4.74 | –
7 | CCN(C(=O)Nc1ccc(F)c(Cl)c1)C(c1c[nH]c(=O)c2ccccc12)C(C)C (single isomer, unassigned) [Compound 54, 3-(3-Chloro-4-fluorophenyl)-1-ethyl-1-(2-methyl-1-(1-oxo-1,2-dihydroisoquinolin-4-yl)propyl)urea] | – | – | EC50 (Hepatitis B virus, HepDE19, read-out: DE-19bDNA EC50 (μM), HepDE19 assay, inhibition of formation of rcDNA): 20 µM
8 | CC(c1c[nH]c(=O)c2c(F)c(F)ccc12)N(C)C(=O)Nc1ccc(F)cc1 (single isomer, unassigned) [Compound 433, 1-(1-(7,8-Difluoro-1-oxo-1,2-dihydroisoquinolin-4-yl)ethyl)-3-(4-fluorophenyl)-1-methylurea] | 7.15 | – | –
9 | CC(c1c[nH]c(=O)c2ccccc12)N(C[C@@H]1CCCO1)C(=O)Nc1ccc(F)c(Cl)c1 (single isomer, unassigned) [Compound 161] | – | 6.82 | –
10 | CC(c1c[nH]c(=O)c2ccccc12)N(C[C@H]1CC[C@@H](O)CC1)C(=O)Nc1ccc(F)c(Cl)c1 (mixture of isomers) [Compound 225, cis-3-(3-Chloro-4-fluorophenyl)-1-((4-hydroxycyclohexyl)methyl)-1-(1-(1-oxo-1,2-dihydroisoquinolin-4-yl)ethyl)urea] | – | – | pEC50 [2]: 7.10
11 | CC(c1c[nH]c(=O)c2ccccc12)N(CCS(N)(=O)=O)C(=O)Nc1ccc(F)c(Cl)c1 (single isomer, unassigned) [Compound 119, 2-(3-(3-Chloro-4-fluorophenyl)-1-(1-(1-oxo-1,2-dihydroisoquinolin-4-yl)ethyl)ureido) ethanesulfonamide] | – | 7.15 | –
12 | CC(c1c[nH]c(=O)c2c(F)c(F)ccc12)N(C)C(=O)Nc1cc(Cl)cc(Cl)c1 (single isomer, unassigned) [Compound 447, 3-(3,5-Dichlorophenyl)-1-(1-(7,8-difluoro-1-oxo-1,2-dihydroisoquinolin-4-yl)ethyl)-1-methylurea] | – | – | pEC50 [4]: 5.19
13 | CC(c1cnc(OCc2ncn(C)n2)c2cc(F)c(F)cc12)N(CCCO)C(=O)Nc1ccc(F)c(Cl)c1 (single isomer, unassigned) [Compound 349, 3-(3-chloro-4-fluorophenyl)-1-(1-(6,7-difluoro-1-((1-methyl-1H-1,2,4-triazol-3-yl)methoxy)isoquinolin-4-yl)ethyl)-1-(3-hydroxypropyl)urea] | 8.30 | – | –
14 | CNC(=O)CN(C(=O)Nc1ccc(F)c(Cl)c1)C(C)c1c[nH]c(=O)c2ccccc12 (stereo not drawn) [Compound 116, 2-(3-(3-Chloro-4-fluorophenyl)-1-(1-(1-oxo-1,2-dihydroisoquinolin-4-yl)ethyl)ureido)-N-methylacetamide] | – | – | pEC50 [2]: 6.00
15 | CCN(C(=O)Nc1ccc(F)c(Cl)c1)C(C)c1c[nH]c(=O)c2ccccc12 (single isomer, unassigned) [Compound 24, 3-(3-Chloro-4-fluorophenyl)-1-ethyl-1-(1-(1-oxo-1,2-dihydroisoquinolin-4-yl)ethyl)urea] | – | 5.49 | –
16 | CCCCN(C(=O)Nc1ccc(F)c(Cl)c1)C(C)c1cnc(OC)c2ccccc12 (single isomer, unassigned) [Compound 62, 1-Butyl-3-(3-chloro-4-fluorophenyl)-1-(1-(1-methoxyisoquinolin-4-yl)ethyl)urea] | – | 5.15 | –
17 | CC(c1c[nH]c(=O)c2cc(F)c(F)cc12)N(C)C(=O)Nc1cccc(Cl)c1 (single isomer, unassigned) [Compound 413, 1-(1-(6,7-Difluoro-1-oxo-1,2-dihydroisoquinolin-4-yl)ethyl)-3-(3-chlorophenyl)-1-methylurea] | – | – | pEC50 [4]: 7.74
18 | CC(C)CN(C(=O)Nc1ccc(F)c(Cl)c1)C(C)c1c[nH]c(=O)c2c(F)cccc12 (single isomer, unassigned) [Compound 360, 3-(3-Chloro-4-fluorophenyl)-1-(1-(8-fluoro-1-oxo-1,2-dihydroisoquinolin-4-yl)ethyl)-1-isobutylurea] | 6.74 | – | –
19 | CC(c1c[nH]c(=O)c2ccncc12)N(C)C(=O)Nc1ccc(F)c(Cl)c1 (stereo not drawn) [Compound 127, 3-(3-chloro-4-fluorophenyl)-1-methyl-1-(1-(1-oxo-1,2-dihydro-2,6-naphthyridin-4-yl)ethyl)urea] | – | – | pEC50 [2]: 6.00
20 | CC(c1c[nH]c(=O)c2c(F)c(F)ccc12)N(C)C(=O)Nc1ccccc1 (single isomer, unassigned) [Compound 436, 1-(1-(7,8-difluoro-1-oxo-1,2-dihydroisoquinolin-4-yl)ethyl)-1-methyl-3-phenylurea] | – | – | pEC50 [4]: 4.72
21 | CC(c1c[nH]c(=O)c2c(F)cccc12)N(CCS(N)(=O)=O)C(=O)Nc1ccc(F)c(Cl)c1 (single isomer, unassigned) [Compound 397, 2-(3-(3-Chloro-4-fluorophenyl)-1-(1-(8-fluoro-1-oxo-1,2-dihydroisoquinolin-4-yl)ethyl)ureido) ethane-1-sulfonamide] | 7.00 | – | –
22 | CC(c1c[nH]c(=O)c2c(F)c(F)ccc12)N(CCS(N)(=O)=O)C(=O)Nc1ccc(F)cc1 (single isomer, unassigned) [Compound 394, 2-(1-(1-(7,8-Difluoro-1-oxo-1,2-dihydroisoquinolin-4-yl)ethyl)-3-(4-fluorophenyl)ureido)ethane-1-sulfonamide] | 5.00 | – | –
23 | COc1ncc(CN(CCO)C(=O)Nc2ccc(F)c(Cl)c2)c2ccccc12 [Compound 21, 3-(3-Chloro-4-fluorophenyl)-1-(2-hydroxyethyl)-1-((1-methoxyisoquinolin-4-yl)methyl)urea] | – | – | pEC50 [2]: 4.74
24 | CCN(C(=O)Nc1ccc(F)c(Cl)c1)C(c1c[nH]c(=O)c2ccccc12)C1CC1 (single isomer, unassigned) [Compound 46, 3-(3-Chloro-4-fluorophenyl)-1-(cyclopropyl(1-oxo-1,2-dihydroisoquinolin-4-yl)methyl)-1-ethylurea] | – | – | pEC50 (read-out: DE-19bDNA EC50; HepDE19 assay, inhibition of formation of rcDNA): 4.64
25 | CC(c1cnc(NCc2nc[nH]n2)c2ccccc12)N(C)C(=O)Nc1ccc(F)c(Cl)c1 (single isomer, unassigned) [Compound 247, 1-(1-(1-(((1H-1,2,4-Triazol-3-yl)methyl)amino)isoquinolin-4-yl)ethyl)-3-(3-chloro-4-fluorophenyl)-1-methylurea] | – | 6.41 | –
26 | CC(c1c[nH]c(=O)c2cc(F)c(F)cc12)N(C)C(=O)Nc1cc(F)c(F)c(F)c1 (single isomer, unassigned) [Compound 414, 1-(1-(6,7-Difluoro-1-oxo-1,2-dihydroisoquinolin-4-yl)ethyl)-3-(3,4,5-trifluorophenyl)-1-methylurea] | 5.32 | – | –
27 | CC(c1c[nH]c(=O)c2ccccc12)N(C[C@H]1CCCO1)C(=O)Nc1ccc(F)c(Cl)c1 (single isomer, unassigned) [Compound 156] | – | 6.77 | –
28 | COc1ncc(C(CCO)NC(=O)Nc2ccc(F)c(Cl)c2)c2ccccc12 (racemic) [Compound 71, 1-(3-Chloro-4-fluorophenyl)-3-(3-hydroxy-1-(1-methoxyisoquinolin-4-yl)propyl)urea] | – | – | pEC50 [2]: 5.36
29 | CC(c1c[nH]c(=O)c2cc(F)c(F)cc12)N(CCS(N)(=O)=O)C(=O)Nc1ccc(F)c(Cl)c1 (single isomer, unassigned) [Compound 385, 2-(3-(3-Chloro-4-fluorophenyl)-1-(1-(6,7-difluoro-1-oxo-1,2-dihydroisoquinolin-4-yl)ethyl)ureido) ethane-1-sulfonamide] | 5.59 | – | –
30 | CC(c1c[nH]c(=O)c2ccccc12)N(CC1COC(C)(C)OC1)C(=O)Nc1ccc(F)c(Cl)c1 (single isomer, unassigned) [Compound 272, 3-(3-Chloro-4-fluorophenyl)-1-((2,2-dimethyl-1,3-dioxan-5-yl)methyl)-1-(1-(1-oxo-1,2-dihydroisoquinolin-4-yl)ethyl)urea] | – | 5.74 | –
